Measurements as given in patent US20230114728A1 (Venatorx Pharmaceuticals, Inc., priority 2019, published 2023).
In brackets after ≈: the same amount, converted by molar mass.

Tests used:
N. gonorrhoeae WHO L = assay: Liquid broth MIC in Fastidious broth; type: cell-based; details: Neisseria gonorrhoeae; N. gonorrhoeae strain WHO L; Fastidious broth; read-out: Minimum Inhibitory Concentration, N. gonorrhoeae WHO L
Outline: (§1)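 Colonies were swabbed from chocolate agar after 24 h growth and standardised by optical density at 600 nm. Compounds were serially diluted twofold in Fastidious broth, and bacteria added to give 5×10^5 CFU/mL. After about 24 h at 36 °C in 5% CO2, the lowest concentration allowing under 10% growth was taken as MIC.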

[1] = test system: N. gonorrhoeae ATCC 49226; assay: Liquid broth MIC in Fastidious broth; type: cell-based; details: Neisseria gonorrhoeae, ATCC49226; N. gonorrhoeae strain ATCC 49226; Fastidious broth; read-out: Minimum Inhibitory Concentration, N. gonorrhoeae ATCC 49226
Outline: as §1

N. gonorrhoeae WHO Z = assay: Liquid broth MIC in Fastidious broth; type: cell-based; details: Neisseria gonorrhoeae, read-out: Minimum Inhibitory Concentration, N. gonorrhoeae WHO Z
Outline: (§2)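 Broth microdilution against gonococcal strains expressing mosaic PBP2, starting inoculum 5×10^5 CFU/mL in Fastidious broth. Incubation runs ~24 h at 36 °C under 5% CO2, with MIC scored visually at <10% of full growth.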

N. gonorrhoeae WHO K = assay: Liquid broth MIC in Fastidious broth; type: cell-based; details: Neisseria gonorrhoeae, read-out: Minimum Inhibitory Concentration, N. gonorrhoeae WHO K
Outline: as §2

N. gonorrhoeae WHO G = assay: Liquid broth MIC in Fastidious broth; type: cell-based; details: Neisseria gonorrhoeae; N. gonorrhoeae strain WHO G; Fastidious broth; read-out: Minimum Inhibitory Concentration, N. gonorrhoeae WHO G
Outline: as §1

N. gonorrhoeae H041 = assay: Liquid broth MIC in Fastidious broth; type: cell-based; details: Neisseria gonorrhoeae, H041, read-out: Minimum Inhibitory Concentration, N. gonorrhoeae H041
Outline: as §2

N. gonorrhoeae WHO Q = assay: Liquid broth MIC in Fastidious broth; type: cell-based; details: Neisseria gonorrhoeae, read-out: Minimum Inhibitory Concentration, N. gonorrhoeae WHO Q
Outline: as §2

N. gonorrhoeae FA1090 = assay: Liquid broth MIC in Fastidious broth; type: cell-based; details: Neisseria gonorrhoeae; N. gonorrhoeae strain FA1090; Fastidious broth; read-out: Minimum Inhibitory Concentration, N. gonorrhoeae FA1090
Outline: as §1

E. coli K12 PBP3 = target: T1, E. coli K12 PBP3 (Escherichia coli, UniProt P0AD68); assay: biochemical; type: binding
T1 construct: made in house
Outline: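 Fluorescence polarization (ex 490/em 520 nm) competition of inhibitors against Bocillin-FL at 0.1 μM, read up to 60 min. Final PBP levels: E. coli PBP3 1.5 μM; A. baumannii PBP2 2.5 μM, PBP3 0.2 μM in Tris pH 8.0/NaCl/glycerol/Tween 20; N. gonorrhoeae PBP2 […] in Hepes pH 8.0/NaCl/glycerol. EC50 = concentration halving PBP-bound Bocillin-FL.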

T1 sequence (P0AD68 1-577): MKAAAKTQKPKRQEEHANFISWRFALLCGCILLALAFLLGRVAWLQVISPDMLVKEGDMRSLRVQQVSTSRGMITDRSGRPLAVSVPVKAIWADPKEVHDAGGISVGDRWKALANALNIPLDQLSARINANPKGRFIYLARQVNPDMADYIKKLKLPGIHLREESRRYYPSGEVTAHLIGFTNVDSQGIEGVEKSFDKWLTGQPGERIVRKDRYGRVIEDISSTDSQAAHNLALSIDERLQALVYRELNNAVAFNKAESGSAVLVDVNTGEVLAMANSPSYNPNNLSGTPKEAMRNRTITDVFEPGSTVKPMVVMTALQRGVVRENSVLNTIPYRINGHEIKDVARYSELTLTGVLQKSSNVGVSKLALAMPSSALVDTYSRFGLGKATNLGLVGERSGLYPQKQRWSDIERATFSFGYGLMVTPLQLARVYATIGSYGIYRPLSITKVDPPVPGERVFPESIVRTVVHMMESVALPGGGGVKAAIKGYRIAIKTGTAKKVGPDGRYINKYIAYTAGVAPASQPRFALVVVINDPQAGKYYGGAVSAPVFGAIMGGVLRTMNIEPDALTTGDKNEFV

Row | SMILES | MIC (N. gonorrhoeae WHO L) [µg/mL] | MIC [1] [µg/mL] | MIC (N. gonorrhoeae WHO Z) [µg/mL] | MIC (N. gonorrhoeae WHO K) [µg/mL] | MIC (N. gonorrhoeae WHO G) [µg/mL] | MIC (N. gonorrhoeae H041) [µg/mL] | MIC (N. gonorrhoeae WHO Q) [µg/mL] | MIC (N. gonorrhoeae FA1090) [µg/mL] | EC50 (E. coli K12 PBP3) [µM]
1 | NC1(CN2CCN(C(=O)NC(C(=O)N[C@H]3Cc4cccc(C(=O)O)c4OB3O)c3cccc(NS(N)(=O)=O)c3)C(=O)C2=O)CC1 (stereo partly drawn) [Example 120, (3R)-3-(2-(4-((1-aminocyclopropyl)methyl)-2,3-dioxopiperazine-1-carboxamido)-2-(3-(sulfamoylamino)phenyl)acetamido)-2-hydroxy-3,4-dihydro-2H-benzo[e][1,2]oxaborinine-8-carboxylic acid] | > 64 | > 64 | > 64 | > 64 | > 64 | > 64 | > 64 | 4 to 8 (≈ 6.22 to 12.4 µM) | 30 to 500
2 | NCCN1CCN(C(=O)NC(C(=O)N[C@H]2Cc3cccc(C(=O)O)c3OB2O)c2ccc(C(=O)O)cc2O)C(=O)C1=O (stereo partly drawn) [Example 142, (3R)-3-(2-(4-(2-aminoethyl)-2,3-dioxopiperazine-1-carboxamido)-2-(4-carboxy-2-hydroxyphenyl)acetamido)-2-hydroxy-3,4-dihydro-2H-benzo[e][1,2]oxaborinine-8-carboxylic acid] | > 64 | 16 to 32 (≈ 27.4 to 54.9 µM) | > 64 | > 64 | 4 to 8 (≈ 6.86 to 13.7 µM) | > 64 | > 64 | 4 to 8 (≈ 6.86 to 13.7 µM) | 30 to 500
3 | CCN1CCN(C(=O)N[C@@H](C(=O)N[C@H]2Cc3cccc(C(=O)O)c3OB2O)c2ccc(C(=O)O)cc2Cl)C(=O)C1=O (single isomer, unassigned) [Example 151] | 16 to 32 (≈ 27.3 to 54.5 µM) | 4 to 8 (≈ 6.82 to 13.6 µM) | 1 to 2 (≈ 1.7 to 3.41 µM) | 4 to 8 (≈ 6.82 to 13.6 µM) | 1 to 2 (≈ 1.7 to 3.41 µM) | 4 to 8 (≈ 6.82 to 13.6 µM) | 4 to 8 (≈ 6.82 to 13.6 µM) | 0.25 to 0.5 (≈ 0.426 to 0.852 µM) | < 30
4 | CCN1CCN(C(=O)N[C@H](C(=O)N[C@H]2Cc3cccc(C(=O)O)c3OB2O)c2ccc(C(=O)O)c(Cl)c2)C(=O)C1=O (single isomer, unassigned) [Example 155] | 16 to 32 (≈ 27.3 to 54.5 µM) | 1 to 2 (≈ 1.7 to 3.41 µM) | 1 to 2 (≈ 1.7 to 3.41 µM) | 1 to 2 (≈ 1.7 to 3.41 µM) | 0.25 to 0.5 (≈ 0.426 to 0.852 µM) | 4 to 8 (≈ 6.82 to 13.6 µM) | 1 to 2 (≈ 1.7 to 3.41 µM) | < 0.125 | < 30
5 | NCCN1CCN(C(=O)N[C@@H](C(=O)N[C@H]2Cc3cccc(C(=O)O)c3OB2O)c2cc(Cl)c(O)c(Cl)c2)C(=O)C1=O (single isomer, unassigned) [Example 166] | > 64 | 16 to 32 (≈ 26.3 to 52.6 µM) | 16 to 32 (≈ 26.3 to 52.6 µM) | > 64 | 4 to 8 (≈ 6.58 to 13.2 µM) | > 64 | 16 to 32 (≈ 26.3 to 52.6 µM) | 0.25 to 0.5 (≈ 0.411 to 0.822 µM) | < 30
6 | CCN1CCN(C(=O)NC(C(=O)N[C@H]2Cc3cccc(C(=O)O)c3OB2O)c2cc(F)c(C(=O)O)cc2F)C(=O)C1=O (stereo partly drawn) [Example 137, (3R)-3-(2-(4-carboxy-2,5-difluorophenyl)-2-(4-ethyl-2,3-dioxopiperazine-1-carboxamido)acetamido)-2-hydroxy-3,4-dihydro-2H-benzo[e][1,2]oxaborinine-8-carboxylic acid] | 16 to 32 (≈ 27.2 to 54.4 µM) | 1 to 2 (≈ 1.7 to 3.4 µM) | 4 to 8 (≈ 6.8 to 13.6 µM) | 4 to 8 (≈ 6.8 to 13.6 µM) | 1 to 2 (≈ 1.7 to 3.4 µM) | 16 to 32 (≈ 27.2 to 54.4 µM) | 4 to 8 (≈ 6.8 to 13.6 µM) | 0.25 to 0.5 (≈ 0.425 to 0.85 µM) | < 30
7 | NCCCN1CCN(C(=O)N[C@@H](C(=O)N[C@H]2Cc3ccc(F)c(C(=O)O)c3OB2O)c2cc(F)c(O)c(O)c2Cl)C(=O)C1=O (single isomer, unassigned) [Example 180] | > 64 | 16 to 32 (≈ 25 to 50 µM) | > 64 | > 64 | 16 to 32 (≈ 25 to 50 µM) | > 64 | > 64 | 4 to 8 (≈ 6.25 to 12.5 µM) | < 30
8 | NCCN1CCN(C(=O)N[C@@H](C(=O)N[C@H]2Cc3cccc(C(=O)O)c3OB2O)c2cccc(NS(N)(=O)=O)c2)C(=O)C1=O (single isomer, unassigned) [Example 114] | > 64 | > 64 | > 64 | > 64 | 16 to 32 (≈ 25.9 to 51.8 µM) | > 64 | > 64 | 4 to 8 (≈ 6.48 to 13 µM) | 30 to 500
9 | CCN1CCN(C(=O)NC(C(=O)N[C@H]2Cc3cccc(C(=O)O)c3OB2O)c2cc(F)c(O)c(F)c2)C(=O)C1=O (stereo partly drawn) [Example 160, (3R)-3-(2-(3,5-difluoro-4-hydroxyphenyl)-2-(4-ethyl-2,3-dioxopiperazine-1-carboxamido)acetamido)-2-hydroxy-3,4-dihydro-2H-benzo[e][1,2]oxaborinine-8-carboxylic acid] | 16 to 32 (≈ 28.6 to 57.1 µM) | 4 to 8 (≈ 7.14 to 14.3 µM) | 4 to 8 (≈ 7.14 to 14.3 µM) | 16 to 32 (≈ 28.6 to 57.1 µM) | 1 to 2 (≈ 1.78 to 3.57 µM) | 16 to 32 (≈ 28.6 to 57.1 µM) | 4 to 8 (≈ 7.14 to 14.3 µM) | < 0.125 | < 30
10 | NS(=O)(=O)c1cccc(C(NC(=O)N2CCN(CCF)C(=O)C2=O)C(=O)N[C@H]2Cc3cccc(C(=O)O)c3OB2O)c1 (stereo partly drawn) [Example 100, (3R)-3-(2-(4-(2-fluoroethyl)-2,3-dioxopiperazine-1-carboxamido)-2-(3-sulfamoylphenyl)acetamido)-2-hydroxy-3,4-dihydro-2H-benzo[e][1,2]oxaborinine-8-carboxylic acid] | > 64 | 16 to 32 (≈ 26.4 to 52.9 µM) | 16 to 32 (≈ 26.4 to 52.9 µM) | 16 to 32 (≈ 26.4 to 52.9 µM) | 1 to 2 (≈ 1.65 to 3.3 µM) | 16 to 32 (≈ 26.4 to 52.9 µM) | 16 to 32 (≈ 26.4 to 52.9 µM) | 0.25 to 0.5 (≈ 0.413 to 0.826 µM) | 30 to 500
11 | CCN1CCN(C(=O)N[C@@H](C(=O)N[C@H]2Cc3cccc(C(=O)O)c3OB2O)c2cc(F)c(C(=O)O)cc2Cl)C(=O)C1=O (single isomer, unassigned) [Example 148] | > 64 | 4 to 8 (≈ 6.61 to 13.2 µM) | 4 to 8 (≈ 6.61 to 13.2 µM) | 4 to 8 (≈ 6.61 to 13.2 µM) | 1 to 2 (≈ 1.65 to 3.31 µM) | 16 to 32 (≈ 26.5 to 52.9 µM) | 4 to 8 (≈ 6.61 to 13.2 µM) | 0.25 to 0.5 (≈ 0.413 to 0.827 µM) | < 30
12 | NCCN1CCN(C(=O)N[C@@H](C(=O)N[C@H]2Cc3cccc(C(=O)O)c3OB2O)c2cc(F)c(O)c(F)c2)C(=O)C1=O (single isomer, unassigned) [Example 159] | > 64 | 16 to 32 (≈ 27.8 to 55.6 µM) | > 64 | > 64 | 4 to 8 (≈ 6.95 to 13.9 µM) | > 64 | > 64 | 1 to 2 (≈ 1.74 to 3.48 µM) | < 30
13 | CCN1CCN(C(=O)N[C@@H](C(=O)N[C@H]2Cc3cccc(C(=O)O)c3OB2O)c2ccc(C(=O)O)cc2)C(=O)C1=O (single isomer, unassigned) [Example 124] | 4 to 8 (≈ 7.24 to 14.5 µM) | 1 to 2 (≈ 1.81 to 3.62 µM) | 1 to 2 (≈ 1.81 to 3.62 µM) | 4 to 8 (≈ 7.24 to 14.5 µM) | 0.25 to 0.5 (≈ 0.453 to 0.905 µM) | 4 to 8 (≈ 7.24 to 14.5 µM) | 1 to 2 (≈ 1.81 to 3.62 µM) | < 0.125 | < 30
14 | CCN1CCN(C(=O)NC(C(=O)N[C@H]2Cc3cccc(C(=O)O)c3OB2O)c2ccc(O)c(F)c2F)C(=O)C1=O (stereo partly drawn) [Example 173] | 16 to 32 (≈ 28.6 to 57.1 µM) | 1 to 2 (≈ 1.78 to 3.57 µM) | 4 to 8 (≈ 7.14 to 14.3 µM) | 16 to 32 (≈ 28.6 to 57.1 µM) | 1 to 2 (≈ 1.78 to 3.57 µM) | 16 to 32 (≈ 28.6 to 57.1 µM) | 16 to 32 (≈ 28.6 to 57.1 µM) | < 0.125 | < 30
15 | O=C(O)c1cccc2c1OB(O)[C@@H](NC(=O)C(NC(=O)N1CCNC1=O)c1c(F)cc(O)cc1F)C2 (stereo partly drawn) [Example 156, (3R)-3-(2-(2,6-difluoro-4-hydroxyphenyl)-2-(2-oxoimidazolidine-1-carboxamido)acetamido)-2-hydroxy-3,4-dihydro-2H-benzo[e][1,2]oxaborinine-8-carboxylic acid] | > 64 | 16 to 32 (≈ 31.7 to 63.5 µM) | > 64 | > 64 | 4 to 8 (≈ 7.93 to 15.9 µM) | > 64 | > 64 | 1 to 2 (≈ 1.98 to 3.97 µM) | < 30
16 | CCN1CCN(C(=O)N[C@@H](C(=O)N[C@H]2Cc3cccc(C(=O)O)c3OB2O)c2ccc(C(=O)O)c(Cl)c2)C(=O)C1=O (single isomer, unassigned) [Example 154] | 4 to 8 (≈ 6.82 to 13.6 µM) | 1 to 2 (≈ 1.7 to 3.41 µM) | 0.25 to 0.5 (≈ 0.426 to 0.852 µM) | 1 to 2 (≈ 1.7 to 3.41 µM) | 0.25 to 0.5 (≈ 0.426 to 0.852 µM) | 1 to 2 (≈ 1.7 to 3.41 µM) | 1 to 2 (≈ 1.7 to 3.41 µM) | < 0.125 | < 30
17 | CCN1CCN(C(=O)NC(C(=O)N[C@H]2Cc3cccc(C(=O)O)c3OB2O)c2c(F)c(O)cc(O)c2F)C(=O)C1=O (stereo partly drawn) [Example 106, (3R)-3-(2-(2,6-difluoro-3,5-dihydroxyphenyl)-2-(4-ethyl-2,3-dioxopiperazine-1-carboxamido)acetamido)-2-hydroxy-3,4-dihydro-2H-benzo[e][1,2]oxaborinine-8-carboxylic acid] | > 64 | > 64 | > 64 | > 64 | 16 to 32 (≈ 27.8 to 55.5 µM) | > 64 | > 64 | 16 to 32 (≈ 27.8 to 55.5 µM) | 30 to 500
